Converted amounts (≈) assume the structure as drawn.
What was measured:
Streptococcus pneumoniae [1] = experiment: Antibacterial activity against penicillin-resistant Streptococcus pneumoniae KT2524 in mouse dosed iv 1 hr after infection; assay type: functional
Streptococcus pneumoniae [2] = experiment: Antibacterial activity against penicillin-susceptible Streptococcus pneumoniae ATCC 6303 in mouse pulmonary infection model assessed as survival at 6.25 mg/kg, ip twice daily for 3 days; assay type: functional; details: route intraperitoneal
Enterococcus faecium [3] = experiment: Antibacterial activity against vancomycin-resistant Enterococcus faecium KU1778 clinical isolate by broth microdilution method; assay type: functional
Moraxella catarrhalis = experiment: Antibacterial activity against Moraxella catarrhalis K1209 by broth microdilution method; assay type: functional
Haemophilus influenzae = experiment: Antibacterial activity against Haemophilus influenzae TH13 by broth microdilution method; assay type: functional
[4] = test system: Staphylococcus saccharolyticus; experiment: Antibacterial activity against Staphylococcus saccharolyticus GAI 5520 by broth microdilution method; assay type: functional
[5] = test system: Streptococcus intermedius; experiment: Antibacterial activity against Streptococcus intermedius GAI 7416 by broth microdilution method; assay type: functional
Atopobium parvulum = experiment: Antibacterial activity against Atopobium parvulum GAI 5542 by broth microdilution method; assay type: functional; details: Lancefieldella parvula
[6] = test system: Peptoniphilus asaccharolyticus; experiment: Antibacterial activity against Peptostreptococcus asaccharolyticus GAI 5534 by broth microdilution method; assay type: functional
[7] = test system: Peptostreptococcus anaerobius; experiment: Antibacterial activity against Peptostreptococcus anaerobius GAI 5506 by broth microdilution method; assay type: functional
Finegoldia magna = experiment: Antibacterial activity against Peptostreptococcus magnus GAI 5528 by broth microdilution method; assay type: functional
Clostridium perfringens = experiment: Antibacterial activity against Clostridium perfringens GAI 5526 by broth microdilution method; assay type: functional
Cutibacterium acnes = experiment: Antibacterial activity against Propionibacterium acnes GAI 5568 by broth microdilution method; assay type: functional
[8] = test system: Propionibacterium granulosum; experiment: Antibacterial activity against Propionibacterium granulosum GAI 7414 by broth microdilution method; assay type: functional; details: Cutibacterium granulosum
[9] = test system: Mycoplasmoides pneumoniae; experiment: Antibacterial activity against Mycoplasma pneumoniae FH Liu by broth microdilution method; assay type: functional
[10] = test system: Mycoplasmoides pneumoniae; experiment: Antibacterial activity against Mycoplasma pneumoniae Mac by broth microdilution method; assay type: functional
Staphylococcus aureus [11] = experiment: Antibacterial activity against methicillin-susceptible Staphylococcus aureus Smith in mouse dosed iv 1 hr after infection; assay type: functional
Staphylococcus aureus [12] = experiment: Antibacterial activity against methicillin-resistant Staphylococcus aureus KT0116 in mouse dosed iv 1 hr after infection; assay type: functional
Streptococcus pneumoniae [13] = experiment: Antibacterial activity against penicillin-susceptible Streptococcus pneumoniae ATCC 49619 in mouse dosed iv 1 hr after infection; assay type: functional; details: ATCC 49619, iv
Streptococcus pneumoniae [14] = experiment: microbe, parasite or virus in culture; details: ATCC 49619
Streptococcus pneumoniae [15] = experiment: microbe, parasite or virus in culture
[16] = test system: Staphylococcus epidermidis; experiment: Antibacterial activity against Staphylococcus epidermidis ATCC 12228 by broth microdilution method; assay type: functional
Streptococcus pyogenes = experiment: Antibacterial activity against Streptococcus pyogenes ATCC 12344 by broth microdilution method; assay type: functional
Staphylococcus aureus [17] = experiment: microbe, parasite or virus in culture
Staphylococcus aureus [18] = experiment: microbe, parasite or virus in culture; details: Smith
Staphylococcus aureus [19] = experiment: microbe, parasite or virus in culture; remark: listed apart in the source
Staphylococcus aureus [20] = experiment: microbe, parasite or virus in culture; details: KMP9
Enterococcus faecium [21] = experiment: microbe, parasite or virus in culture; details: ATCC 19434
Staphylococcus aureus [22] = experiment: Antibacterial activity against methicillin-susceptible Staphylococcus aureus Smith in mouse dosed twice iv 1 hr and 4 hrs after infection; assay type: functional
Staphylococcus aureus [23] = experiment: Antibacterial activity against methicillin-resistant Staphylococcus aureus KT0116 in mouse dosed twice iv 1 hr and 4 hrs after infection; assay type: functional
Streptococcus pneumoniae [24] = experiment: Antibacterial activity against penicillin-susceptible Streptococcus pneumoniae ATCC 49619 in mouse dosed twice iv 1 hr and 4 hrs after infection; assay type: functional; details: ATCC 49619, iv
Streptococcus pneumoniae [25] = experiment: Antibacterial activity against penicillin-resistant Streptococcus pneumoniae KT2524 in mouse dosed twice iv 1 hr and 4 hrs after infection; assay type: functional
Staphylococcus aureus [26] = experiment: Antibacterial activity against methicillin-susceptible Staphylococcus aureus Smith in po dosed mouse twice daily; assay type: functional
Enterococcus faecalis = experiment: microbe, parasite or virus in culture; details: ATCC 29212

Row | Structure (SMILES) | ED50 (Streptococcus pneumoniae [1]) | MIC (Enterococcus faecium [3]) | MIC (Moraxella catarrhalis) | MIC (Haemophilus influenzae) | MIC [4] | MIC [5] | MIC (Atopobium parvulum) | MIC [6] | MIC [7] | MIC (Finegoldia magna) | MIC (Clostridium perfringens) | MIC (Cutibacterium acnes) | MIC [8] | MIC [9] | MIC [10] | ED50 (Staphylococcus aureus [11]) | ED50 (Staphylococcus aureus [12]) | ED50 (Streptococcus pneumoniae [13]) | MIC (Streptococcus pneumoniae [14]) | MIC (Streptococcus pneumoniae [15]) | other results
1 | CN[C@H](CC(C)C)C(=O)N[C@H]1C(=O)N[C@@H](CC(N)=O)C(=O)N[C@H]2C(=O)N[C@H]3C(=O)N[C@H](C(=O)N[C@H](C(=O)O)c4cc(O)cc(O)c4-c4cc3ccc4O)[C@H](O)c3ccc(c(Cl)c3)Oc3cc2cc(c3O[C@@H]2O[C@H](CO)[C@@H](O)[C@H](O)[C@H]2O[C@H]2C[C@](C)(N)[C@H](O)[C@H](C)O2)Oc2ccc(cc2Cl)[C@H]1O [VANCOMYCIN] | 2.37 mg/kg | > 128 µg/mL | 64 µg/mL (≈ 44.2 µM) | > 128 µg/mL | 2 µg/mL (≈ 1.38 µM) | 1 µg/mL (≈ 0.69 µM) | 2 µg/mL (≈ 1.38 µM) | 0.125 µg/mL (≈ 0.0863 µM) | 0.25 µg/mL (≈ 0.173 µM) | 0.25 µg/mL (≈ 0.173 µM) | 0.5 µg/mL (≈ 0.345 µM) | 0.5 µg/mL (≈ 0.345 µM) | 0.5 µg/mL (≈ 0.345 µM) | > 128 µg/mL | > 128 µg/mL | 0.88 mg/kg | 1.01 mg/kg | 1.06 mg/kg | 0.25 µg/mL (≈ 0.173 µM) | 0.5 µg/mL (≈ 0.345 µM) | Activity (Streptococcus pneumoniae [2]): 50%
2 | CN(C)c1ccc(O)c2c1C[C@H]1C[C@H]3[C@H](N(C)C)C(O)=C(C(N)=O)C(=O)[C@@]3(O)C(O)=C1C2=O [MINOCYCLINE] | 50 mg/kg | 0.063 µg/mL (≈ 0.138 µM) | 0.25 µg/mL (≈ 0.546 µM) | 0.5 µg/mL (≈ 1.09 µM) | 0.125 µg/mL (≈ 0.273 µM) | 0.25 µg/mL (≈ 0.546 µM) | 0.25 µg/mL (≈ 0.546 µM) | 16 µg/mL (≈ 35 µM) | 0.032 µg/mL (≈ 0.0699 µM) | 0.125 µg/mL (≈ 0.273 µM) | 0.063 µg/mL (≈ 0.138 µM) | 0.125 µg/mL (≈ 0.273 µM) | 0.25 µg/mL (≈ 0.546 µM) | 0.25 µg/mL (≈ 0.546 µM) | 0.25 µg/mL (≈ 0.546 µM) | 0.515 mg/kg | 50 mg/kg | 0.968 mg/kg | 0.032 µg/mL (≈ 0.0699 µM) | 8 µg/mL (≈ 17.5 µM) | MIC [16]: 0.125 µg/mL (≈ 0.273 µM); MIC (Streptococcus pyogenes): 0.063 µg/mL (≈ 0.138 µM); MIC (Staphylococcus aureus [17]): 0.063 µg/mL (≈ 0.138 µM); MIC (Staphylococcus aureus [18]): 0.063 µg/mL (≈ 0.138 µM); MIC (Staphylococcus aureus [19]): 16 µg/mL (≈ 35 µM); MIC (Staphylococcus aureus [20]): 4 µg/mL (≈ 8.74 µM); MIC (Enterococcus faecium [21]): 0.063 µg/mL (≈ 0.138 µM)
3 | CC[C@]1(C)C[C@@H](OC(=O)CSc2nnc(N)[nH]2)[C@]2(C)[C@H](C)CC[C@]3(CCC(=O)[C@H]32)[C@@H](C)[C@@H]1O [AZAMULIN] | – | 0.25 µg/mL (≈ 0.522 µM) | 0.032 µg/mL (≈ 0.0669 µM) | 0.5 µg/mL (≈ 1.04 µM) | – | – | – | – | – | – | – | – | – | – | – | – | – | – | 0.5 µg/mL (≈ 1.04 µM) | 0.5 µg/mL (≈ 1.04 µM) | MIC [16]: 0.25 µg/mL (≈ 0.522 µM); ED50 (Staphylococcus aureus [22]): 6.88 mg/kg; ED50 (Staphylococcus aureus [23]): 5.2 mg/kg; ED50 (Streptococcus pneumoniae [24]): 12.9 mg/kg; ED50 (Streptococcus pneumoniae [25]): 17.7 mg/kg; ED50 (Staphylococcus aureus [26]): 13.3 mg/kg; MIC (Streptococcus pyogenes): 0.25 µg/mL (≈ 0.522 µM); MIC (Staphylococcus aureus [17]): 0.25 µg/mL (≈ 0.522 µM); MIC (Staphylococcus aureus [18]): 0.5 µg/mL (≈ 1.04 µM); MIC (Staphylococcus aureus [19]): 1 µg/mL (≈ 2.09 µM); MIC (Staphylococcus aureus [20]): 2 µg/mL (≈ 4.18 µM); MIC (Enterococcus faecalis): 128 µg/mL (≈ 267 µM); MIC (Enterococcus faecium [21]): 0.5 µg/mL (≈ 1.04 µM)

From ChEMBL document CHEMBL1142399, “Water-soluble pleuromutilin derivative with excellent in vitro and in vivo antibacterial activity against gram-positive pathogens” (J Med Chem, 2008)
